Results reported in patent publication US20060252800A1, “Anti-leishmania agent” (priority 2003, published 2006).

Legend:
Leishmania (L. major) = assay: Leishmania protozoa proliferation inhibition assay; format: cell-based; details: for OD level (number of viable Leishmania protozoa): 48 hours at 27° C., absorbance 450 nm minus 630 nm; for IC50: calculated from the graphs of FIGS. 1 to 4 (concentration vs number of viable leishmania protozoa), read-out: Concentration inhibiting 50% leishmania proliferation
Method: After dissolving each of the obtained compounds in dimethylsulfoxide (hereinafter referred to as DMSO), the resultant was diluted by 9 steps in Medium 199 medium (Invitrogen) to the indicated concentration, filtrated with a membrane filter, and each of the filtration was made as a sample solution. […] By keeping the solution at 27° C., incubation was performed under 5% CO2, for 48 hours. Then, TetraColor ONE (tradename: Seikagaku Corporation) reagent was added thereto and further incubated for 6 hours. Then, the absorbance at a wavelength of 450 nm was measured for the 96-well microtiter plate with a microplate reader, the wave length of 630 nm was made as reference wave length, and in order to exclude background effect, the absorbance at 630 nm was excluded from the one at 450 nm, and the OD level was calculated as a level to indicate the number of viable Leishmania protozoa. The assay was performed by three wells at a time for each concentration of each sample, and the mean level was made as OD level. […] Amphotericin B was used as positive control. […] Inhibiting effect against […] protozoa for each sample was similar or more compared with that of Amtephotericin B.

[1] = Table 2, sample concentration 0.0001 mg/ml
[2] = Table 2, sample concentration 0.0007 mg/ml
[3] = Table 2, sample concentration 0.002 mg/ml
[4] = Table 2, sample concentration 0.008 mg/ml
[5] = Table 2, sample concentration 0.025 mg/ml
[6] = Table 2, sample concentration 0.084 mg/ml
[7] = Table 2, sample concentration 0.279 mg/ml
[8] = Table 2, sample concentration 0.93 mg/ml
[9] = Table 2, sample concentration 3.1 mg/ml
[10] = Table 2, sample concentration 2E−04 mg/ml
[11] = Table 3, sample concentration 0.001 mg/ml
[12] = Table 3, sample concentration 0.002165 mg/ml
[13] = Table 3, sample concentration 0.0072171 mg/ml
[14] = Table 3, sample concentration 0.02406 mg/ml
[15] = Table 3, sample concentration 0.08019 mg/ml
[16] = Table 3, sample concentration 0.2673 mg/ml
[17] = Table 3, sample concentration 0.891 mg/ml
[18] = Table 3, sample concentration 2.97 mg/ml
[19] = Table 3, sample concentration 9.9 mg/ml
[20] = Table 3, sample concentration 33 mg/ml
[21] = Table 1, sample concentration 0.001 mg/ml
[22] = Table 1, sample concentration 0.016384 mg/ml
[23] = Table 1, sample concentration 0.04096 mg/ml
[24] = Table 1, sample concentration 0.1024 mg/ml
[25] = Table 1, sample concentration 0.256 mg/ml
[26] = Table 1, sample concentration 0.64 mg/ml
[27] = Table 1, sample concentration 1.6 mg/ml
[28] = Table 1, sample concentration 4 mg/ml
[29] = Table 1, sample concentration 10 mg/ml
[30] = Table 1, sample concentration 25 mg/ml, mean of three wells

Compound	melting point	OD level (number of viable Leishmania protozoa) (Leishmania (L. major); [1])	OD level (number of viable Leishmania protozoa) (Leishmania (L. major); [2])	OD level (number of viable Leishmania protozoa) (Leishmania (L. major); [3])	OD level (number of viable Leishmania protozoa) (Leishmania (L. major); [4])	OD level (number of viable Leishmania protozoa) (Leishmania (L. major); [5])	OD level (number of viable Leishmania protozoa) (Leishmania (L. major); [6])	OD level (number of viable Leishmania protozoa) (Leishmania (L. major); [7])	OD level (number of viable Leishmania protozoa) (Leishmania (L. major); [8])	OD level (number of viable Leishmania protozoa) (Leishmania (L. major); [9])	OD level (number of viable Leishmania protozoa) (Leishmania (L. major); [10])	IC50 (Leishmania (L. major))	OD level (number of viable Leishmania protozoa) (Leishmania (L. major); [11])	OD level (number of viable Leishmania protozoa) (Leishmania (L. major); [12])	OD level (number of viable Leishmania protozoa) (Leishmania (L. major); [13])	OD level (number of viable Leishmania protozoa) (Leishmania (L. major); [14])	OD level (number of viable Leishmania protozoa) (Leishmania (L. major); [15])	OD level (number of viable Leishmania protozoa) (Leishmania (L. major); [16])	OD level (number of viable Leishmania protozoa) (Leishmania (L. major); [17])	OD level (number of viable Leishmania protozoa) (Leishmania (L. major); [18])	further results
CCCC[n+]1ccccc1/C=c1\s/c(=C2/Sc3ccccc3N2C)c(=O)n1CC.[I-] [I (c), 1-butyl-2-[3-ethyl-{5-(3-methyl-2(3H)-benzothiazolylidene)-4-oxo-2-thiazolidinylidene}methyl]pyridinium=iodide]	237 to 242 °C	0.365	0.360	0.394	0.407	0.317	0.117	0.042	0.029	0.031	0.350	1000 nM									
CCCC[n+]1ccc(/C=c2\s/c(=C3/Sc4ccccc4N3C)c(=O)n2CC)cc1.[Br-] [I (b), 1-butyl-4-[3-ethyl-{5-(3-methyl-2(3H)-benzothiazolylidene)-4-oxo-2-thiazolidinylidene}methyl]pyridinium=bromide]	299 to 300 °C	0.363	0.345	0.335	0.335	0.435	0.465	0.106	0.032	0.032	0.343	3700 nM									
C[C@@H]1[C@H](O)[C@@H](C)/C=C/C=C/C=C/C=C/C=C/C=C/C=C/[C@H](O[C@@H]2O[C@H](C)[C@@H](O)[C@H](N)[C@@H]2O)C[C@@H]2O[C@](O)(C[C@@H](O)C[C@@H](O)[C@H](O)CC[C@@H](O)C[C@@H](O)CC(=O)O[C@H]1C)C[C@H](O)[C@H]2C(=O)O [Amphotericin B, reference compound]												140 nM	0.351	0.338	0.325	0.331	0.311	0.273	0.051	0.029	OD level (number of viable Leishmania protozoa) (Leishmania (L. major); Table 1, positive control line, concentration 0.001 mg/ml): 0.428; OD level (number of viable Leishmania protozoa) (Leishmania (L. major); Table 1, positive control line, concentration 0.0121094 mg/ml): 0.394; OD level (number of viable Leishmania protozoa) (Leishmania (L. major); Table 1, positive control line, concentration 0.0242188 mg/ml): 0.373; OD level (number of viable Leishmania protozoa) (Leishmania (L. major); Table 1, positive control line, concentration 0.0484375 mg/ml): 0.352; OD level (number of viable Leishmania protozoa) (Leishmania (L. major); Table 1, positive control line, concentration 0.096875 mg/ml): 0.349; OD level (number of viable Leishmania protozoa) (Leishmania (L. major); Table 1, positive control line, concentration 0.19375 mg/ml): 0.044; OD level (number of viable Leishmania protozoa) (Leishmania (L. major); Table 1, positive control line, concentration 0.3875 mg/ml): 0.036; OD level (number of viable Leishmania protozoa) (Leishmania (L. major); Table 1, positive control line, concentration 0.775 mg/ml): 0.036; OD level (number of viable Leishmania protozoa) (Leishmania (L. major); Table 1, positive control line, concentration 1.55 mg/ml): 0.036; OD level (number of viable Leishmania protozoa) (Leishmania (L. major); Table 1, positive control line, concentration 3.1 mg/ml): 0.034; OD level (number of viable Leishmania protozoa) (Leishmania (L. major); [19]): 0.029; OD level (number of viable Leishmania protozoa) (Leishmania (L. major); [20]): 0.030
CCn1c(=Cc2cc[n+](C)cc2)sc(=C2Sc3ccccc3N2C)c1=O.Cc1ccc(S(=O)(=O)[O-])cc1 [IV (j), 4-[(5-(3-methyl-2(3H)-benzothiazolylidene)-4-oxo-3-ethyl-2-thiazolidinylidene}methyl]-1-methylpyridinium=p-toluenesulfonate]												10000 nM									OD level (number of viable Leishmania protozoa) (Leishmania (L. major); [21]): 0.446; OD level (number of viable Leishmania protozoa) (Leishmania (L. major); [22]): 0.462; OD level (number of viable Leishmania protozoa) (Leishmania (L. major); [23]): 0.468; OD level (number of viable Leishmania protozoa) (Leishmania (L. major); [24]): 0.518; OD level (number of viable Leishmania protozoa) (Leishmania (L. major); [25]): 0.661; OD level (number of viable Leishmania protozoa) (Leishmania (L. major); [26]): 0.793; OD level (number of viable Leishmania protozoa) (Leishmania (L. major); [27]): 0.551; OD level (number of viable Leishmania protozoa) (Leishmania (L. major); [28]): 0.275; OD level (number of viable Leishmania protozoa) (Leishmania (L. major); [29]): 0.188; OD level (number of viable Leishmania protozoa) (Leishmania (L. major); [30]): 0.057
CN1C(=c2sc(=Cc3sc4ccccc4[n+]3C)n(CC3CCCO3)c2=O)Sc2ccccc21.Cc1ccc(S(=O)(=O)[O-])cc1 (stereo not drawn) [IV (k), 2-[{5-(3-methyl-2(3H)-benzothiazolylidene)-4-oxo-3-(2-tetrahydrofuranyl)methyl-2-thiazolidinylidene}methyl]-1-methylbenzothiazolium=p-toluenesulfonate]												2600 nM	0.338	0.356	0.344	0.341	0.351	0.348	0.371	0.434	OD level (number of viable Leishmania protozoa) (Leishmania (L. major); [19]): 0.154; OD level (number of viable Leishmania protozoa) (Leishmania (L. major); [20]): 0.029
C=CCn1c(=Cc2cccc[n+]2C)sc(=C2Sc3ccccc3N2C)c1=O.Cc1ccc(S(=O)(=O)[O-])cc1 [IV (a), 2-[{5-(3-methyl-2(3H)-benzothiazolylidene)-4-oxo-3-(2-propenyl)-2-thiazolidinylidene}methyl]-1-methylpyridinium=p-toluenesulfonate]												320 nM									OD level (number of viable Leishmania protozoa) (Leishmania (L. major); [21]): 0.470; OD level (number of viable Leishmania protozoa) (Leishmania (L. major); [22]): 0.541; OD level (number of viable Leishmania protozoa) (Leishmania (L. major); [23]): 0.488; OD level (number of viable Leishmania protozoa) (Leishmania (L. major); [24]): 0.385; OD level (number of viable Leishmania protozoa) (Leishmania (L. major); [25]): 0.157; OD level (number of viable Leishmania protozoa) (Leishmania (L. major); [26]): 0.095; OD level (number of viable Leishmania protozoa) (Leishmania (L. major); [27]): 0.047; OD level (number of viable Leishmania protozoa) (Leishmania (L. major); [28]): 0.035; OD level (number of viable Leishmania protozoa) (Leishmania (L. major); [29]): 0.031; OD level (number of viable Leishmania protozoa) (Leishmania (L. major); [30]): 0.032
